Measurements reported in ChEMBL document CHEMBL1201862, “PubChem BioAssay data set” (2004).
The source made the active and inactive calls.

Legend:
[1] = target: Photoreceptor-specific nuclear receptor (Homo sapiens, UniProt Q9Y5X4); format: functional, cell-based;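 also: CHO-S cells with Gal4-NCOR and VP16-NR2E3 two-hybrid luciferase reporter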
[2] = target: COUP transcription factor 2 (Homo sapiens, UniProt P24468); assay: Luminescence-based cell-based high throughput dose response assay to identify inhibitors of COUP-TFII (NR2F2).; format: functional;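 also: HEK293 cells transiently cotransfected with COUP-TFII expression vector and reporter; luciferase reporter luminescence driven by COUP-TFII from the pX2-168 reporter plasmid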
[3] = target: fMet-Leu-Phe receptor (Homo sapiens, UniProt P21462); assay: FPR ligands, dose response (AID 519); format: functional
[4] = target: T1, Oxysterols receptor LXR-beta (Homo sapiens, UniProt P55055); format: functional, cell-based;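 also: agonist activity at LXR measured by a cell-based luminescence readout across a dose range, run as a counterscreen for daf-12 agonists; HEK293 cells with Gal4-LXR fusion and GAL4-driven luciferase reporter; potency for activation of Gal4-LXR reporter so compounds are agonists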
T1 sequence (P55055 whole entry): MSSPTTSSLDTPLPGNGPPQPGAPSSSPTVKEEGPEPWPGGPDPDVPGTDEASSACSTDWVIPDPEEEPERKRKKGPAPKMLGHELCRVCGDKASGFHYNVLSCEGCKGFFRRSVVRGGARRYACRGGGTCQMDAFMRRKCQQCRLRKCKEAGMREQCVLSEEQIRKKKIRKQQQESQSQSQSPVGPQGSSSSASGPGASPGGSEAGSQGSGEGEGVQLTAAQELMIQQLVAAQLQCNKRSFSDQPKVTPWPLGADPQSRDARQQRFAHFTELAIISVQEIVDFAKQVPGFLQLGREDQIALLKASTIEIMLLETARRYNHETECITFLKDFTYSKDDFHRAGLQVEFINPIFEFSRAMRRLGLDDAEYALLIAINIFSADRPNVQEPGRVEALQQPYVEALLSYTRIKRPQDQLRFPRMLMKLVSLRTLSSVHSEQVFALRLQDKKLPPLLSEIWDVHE

[5] = target: T2, Short transient receptor potential channel 4 (Mus musculus, UniProt Q9QUQ5); assay: mouse TRPC4 channel activators, dose response, cell-based, HEK293 TRPC4/mu-opioid, Fluo-4 calcium (AID 434937); format: functional
T2 sequence (Q9QUQ5 whole entry): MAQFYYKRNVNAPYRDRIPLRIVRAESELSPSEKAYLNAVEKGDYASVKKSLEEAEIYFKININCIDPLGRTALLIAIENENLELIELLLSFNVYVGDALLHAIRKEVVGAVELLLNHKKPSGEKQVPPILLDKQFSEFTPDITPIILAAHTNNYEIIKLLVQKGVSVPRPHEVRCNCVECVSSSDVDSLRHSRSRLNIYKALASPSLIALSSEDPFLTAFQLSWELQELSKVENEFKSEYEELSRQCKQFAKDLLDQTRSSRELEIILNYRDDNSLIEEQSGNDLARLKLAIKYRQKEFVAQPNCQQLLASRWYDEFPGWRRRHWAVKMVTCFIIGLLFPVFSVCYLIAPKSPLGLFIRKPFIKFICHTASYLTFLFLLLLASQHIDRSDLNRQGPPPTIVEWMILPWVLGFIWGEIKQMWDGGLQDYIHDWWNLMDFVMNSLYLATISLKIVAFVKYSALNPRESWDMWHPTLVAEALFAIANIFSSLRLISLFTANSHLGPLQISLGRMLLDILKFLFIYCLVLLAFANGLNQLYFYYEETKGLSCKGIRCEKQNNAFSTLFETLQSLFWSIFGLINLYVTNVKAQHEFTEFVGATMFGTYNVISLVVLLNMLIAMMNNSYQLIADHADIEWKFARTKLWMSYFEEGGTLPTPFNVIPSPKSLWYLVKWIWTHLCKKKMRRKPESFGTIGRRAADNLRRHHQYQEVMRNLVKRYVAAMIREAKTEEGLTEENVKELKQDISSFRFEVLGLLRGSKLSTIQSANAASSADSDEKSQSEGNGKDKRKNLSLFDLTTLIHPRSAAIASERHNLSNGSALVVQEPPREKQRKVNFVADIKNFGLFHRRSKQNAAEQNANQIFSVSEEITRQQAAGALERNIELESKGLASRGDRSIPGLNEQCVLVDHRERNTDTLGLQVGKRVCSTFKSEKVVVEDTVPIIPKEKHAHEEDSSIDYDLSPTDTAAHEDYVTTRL

[6] = cytotoxicity in KRAS-transformed pancreatic duct cells, primary screen, cell-based, fluorescence, HTS (AID 431); format: functional; conditions: Homo sapiens;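 also: cell line used: HPDE-C7K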
[7] = NIH-3T3 fibroblast cytotoxicity, dose response, cytotoxicity control, cell-based, fluorescence, Alamar Blue, secondary assay (AID 2327); format: functional;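 also: NIH-3T3 mouse fibroblasts cultured with fluconazole at 8 µg/mL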
[8] = cytotoxicity in HPDE-C7 cells, cell-based, fluorescence, HTS (AID 430); format: functional; conditions: Homo sapiens
[9] = target: ATP-dependent molecular chaperone HSP82 (Candida albicans (strain WO-1) (Yeast), UniProt C4YTQ8); assay: loss of DOC-induced GRE-beta-galactosidase reporter signal, dose response, Hsp90 inhibitor project, S. cerevisiae, luminescence (AID 2400); format: functional, cell-based;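 also: beta-galactosidase luminescence from glucocorticoid response element reporter as proxy for Hsp90 function; inhibitor potency where signal loss means Hsp90 inhibition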
[10] = C. albicans growth with fluconazole, confirmation, fluorescence, retest (AID 2467); format: functional, cell-based
[11] = cytotoxicity in HEK-293T cells, dose response, cytotoxicity control for TCR NF-kB inhibitor project, luminescence, T-cell screen hits (AID 489026); format: functional, cell-based;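 also: cells exposed to compound about 14 hours before the viability readout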
[12] = inhibitors of clade B AD8 Env fusion, dose response, cell-based, cherry-pick (AID 652062); format: functional;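 also: luciferase signal from cell-cell fusion driven by HIV-1 clade B AD8 Env; potency is for inhibitors of fusion seen as a drop in luminescence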
[13] = ZM109 Env clade C HIV-1 fusion inhibitors, dose response, HeLa effector, CEM target cells, luciferase, cherry-pick (AID 652058); format: functional, cell-based
[14] = target: T3, Serine/threonine-protein phosphatase (Candida dubliniensis (strain CD36 / CBS 7987 / NCPF 3949 / NRRLY-17841) (Yeast), UniProt B9W6M3); assay: calcineurin pathway inhibitors in yeast reporter, dose response, S. cerevisiae, CDRE-lacZ, luminescence, secondary (AID 2388); format: functional, cell-based;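 also: yeast reporter cells carrying a calcineurin-responsive lacZ construct stimulated with calcium chloride; luminescent beta-galactosidase reporter signal in whole cells rather than isolated phosphatase activity; potency for inhibition where a drop in reporter signal means calcineurin blockade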
T3 sequence (B9W6M3 whole entry): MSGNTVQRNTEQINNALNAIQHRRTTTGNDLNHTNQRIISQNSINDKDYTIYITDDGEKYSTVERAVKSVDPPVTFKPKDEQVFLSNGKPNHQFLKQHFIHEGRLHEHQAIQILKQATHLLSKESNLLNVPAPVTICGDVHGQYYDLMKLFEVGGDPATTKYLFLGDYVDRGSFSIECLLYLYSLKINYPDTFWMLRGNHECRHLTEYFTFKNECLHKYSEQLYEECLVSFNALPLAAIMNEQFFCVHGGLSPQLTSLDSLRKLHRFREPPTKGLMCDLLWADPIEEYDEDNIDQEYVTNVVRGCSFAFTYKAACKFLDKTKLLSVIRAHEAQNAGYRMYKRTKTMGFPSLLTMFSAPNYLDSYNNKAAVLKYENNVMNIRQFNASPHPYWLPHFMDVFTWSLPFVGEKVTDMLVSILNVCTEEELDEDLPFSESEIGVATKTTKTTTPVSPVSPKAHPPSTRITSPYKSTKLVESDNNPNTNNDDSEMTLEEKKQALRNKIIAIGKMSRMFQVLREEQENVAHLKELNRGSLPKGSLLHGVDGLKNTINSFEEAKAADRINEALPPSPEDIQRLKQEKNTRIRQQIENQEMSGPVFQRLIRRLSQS

[15] = CEM21 lymphoblast cell cytotoxicity, dose response, cytotoxicity control for viral fusion inhibitor project, CellTiter-Glo luminescence, cherry-picked (AID 652042); format: functional, cell-based;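 also: potency for signal decrease meaning cytotoxicity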
[16] = HEK293T cytotoxicity, dose response, cytotoxicity control for miR-122 modulator project, cell-based, activator set, cherry-pick (AID 720690); format: functional;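 also: HEK293T human cells scored for general mammalian cytotoxicity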
[17] = tested on: H4; assay: Luminescence Cell-Based Dose Response HTS to Identify Activators of 5'UTR Stem-Loop Driven Prion Protein mRNA Translation in H4 Neuroglioblastoma Cells. [Related pubchem assays: 1829 (Project Summary), 1814 (Primary HTS)]; format: functional; conditions: Homo sapiens
[18] = cells; format: functional, cell-based
[19] = Luminescence Cell-Based Dose Confirmation HTS to Identify Activators of 5'UTR Stem-Loop Driven Alpha-Synuclein mRNA Translation in H4 Neuroglioblastoma Cells. [Related pubchem assays: 1829 (Project Summary), 1814 (Primary HTS)]; format: functional
[20] = cells; format: functional, cell-based; remark: listed apart in the source
[21] = Luminescence Cell-Based Dose Response HTS to Identify Activators of Luciferase Translation or Activity in H4 […] Cells. [Related pubchem assays: 1829 (Project Summary), 1814 (Primary HTS)]; format: functional
[22] = target: Nonstructural protein 1 (Influenza A virus, UniProt Q194T2); format: functional, Influenza A virus (A/California/07/2009(H1N1))
[23] = human group III sPLA2 inhibitors, dose response, biochemical, QFRET, IC50 (AID 743457);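 also: green fluorescence rise as the enzyme cleaves BODIPY PC-A2 in liposomes; potency for inhibition of the enzyme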
[24] = target: Histone-lysine N-methyltransferase NSD2 (Homo sapiens, UniProt O96028); format: biochemical
[25] = inhibitors of control Renilla luciferase reporter, dose response, counter-screen for Shn3 3'UTR targeting project, Clone20-Shn3RL cells, dual-Glo, cherry-pick, set 2 (AID 720724); format: functional, cell-based; conditions: Dual-Go Shn3RL
[26] = Shn3 3'UTR reporter inhibitors, dose response, cell-based, Clone20 osteoblasts, firefly luciferase, cherry-picked (AID 624132); format: functional;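 also: firefly luciferase luminescence from reporter carrying the Shn3 3'UTR in osteoblasts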
[27] = reduction of Shn3 3'UTR firefly luciferase signal, dose response, Schnurri-3 inhibitor project, cell-based, Clone20 osteoblasts, cherry-pick, set 2 (AID 720490); format: functional;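 also: actives lower the luminescence signal as inhibitors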
[28] = control 3'UTR Renilla luciferase suppression, dose response, counter-screen for Shn3 inhibitor project, cell-based, Clone20-Shn3RL, cherry-picked (AID 624133); format: functional
[29] = HepG2 cell cytotoxicity, dose response, cytotoxicity control for Shn3 inhibitor project, CellTiter-Glo, cherry-picked (AID 624134); format: functional, cell-based
[30] = cytotoxicity toward NIH3T3 fibroblasts, dose response, counter-screen, cell-based, ATP luminescence, mouse fibroblasts (AID 2010); format: functional;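 also: cells exposed to compound for about 90 hours before reading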
[31] = target: Heat shock protein HSP 90-alpha (Homo sapiens, UniProt P07900); format: functional, organism-based
[32] = tested on: Streptococcus sp. 'group A'; assay: growth inhibition of control SK(-) GAS strain, dose response, counter-screen for streptokinase expression inhibitor project, luminescence, kanamycin, BacTiterGlo, confirmation (AID 1900); format: functional, organism-based
[33] = tested on: Streptococcus; assay: Group A Streptococcus viability loss, dose response, counter-screen for streptokinase expression inhibitor project, luminescence, BacTiterGlo (AID 1915); format: functional, organism-based;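 also: potency for reduction of bacterial viability or growth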
[34] = inhibitors of intracellular T. cruzi replication, confirmation, NIH3T3 host cells, beta-gal luminescence (AID 2044); format: functional, cell-based;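 also: intracellular parasites grown in NIH/3T3 mouse fibroblasts as host cells; luminescent beta-galactosidase reporter signal from transgenic T. cruzi replicating inside host cells; inhibitors lower the luminescence signal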

COUP transcription factor 2, sequence (P24468 whole entry): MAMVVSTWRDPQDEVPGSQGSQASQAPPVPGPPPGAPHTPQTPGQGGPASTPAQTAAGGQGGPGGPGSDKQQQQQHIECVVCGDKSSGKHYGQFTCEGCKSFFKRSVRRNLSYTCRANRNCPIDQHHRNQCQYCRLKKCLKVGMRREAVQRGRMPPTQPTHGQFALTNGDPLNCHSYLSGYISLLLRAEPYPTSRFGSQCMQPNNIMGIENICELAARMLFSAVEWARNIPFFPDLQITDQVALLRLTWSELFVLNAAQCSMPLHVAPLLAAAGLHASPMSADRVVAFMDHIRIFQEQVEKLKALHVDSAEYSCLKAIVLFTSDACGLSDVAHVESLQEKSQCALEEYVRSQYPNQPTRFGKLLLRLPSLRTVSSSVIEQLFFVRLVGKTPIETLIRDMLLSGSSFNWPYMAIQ
ATP-dependent molecular chaperone HSP82, sequence (C4YTQ8 whole entry): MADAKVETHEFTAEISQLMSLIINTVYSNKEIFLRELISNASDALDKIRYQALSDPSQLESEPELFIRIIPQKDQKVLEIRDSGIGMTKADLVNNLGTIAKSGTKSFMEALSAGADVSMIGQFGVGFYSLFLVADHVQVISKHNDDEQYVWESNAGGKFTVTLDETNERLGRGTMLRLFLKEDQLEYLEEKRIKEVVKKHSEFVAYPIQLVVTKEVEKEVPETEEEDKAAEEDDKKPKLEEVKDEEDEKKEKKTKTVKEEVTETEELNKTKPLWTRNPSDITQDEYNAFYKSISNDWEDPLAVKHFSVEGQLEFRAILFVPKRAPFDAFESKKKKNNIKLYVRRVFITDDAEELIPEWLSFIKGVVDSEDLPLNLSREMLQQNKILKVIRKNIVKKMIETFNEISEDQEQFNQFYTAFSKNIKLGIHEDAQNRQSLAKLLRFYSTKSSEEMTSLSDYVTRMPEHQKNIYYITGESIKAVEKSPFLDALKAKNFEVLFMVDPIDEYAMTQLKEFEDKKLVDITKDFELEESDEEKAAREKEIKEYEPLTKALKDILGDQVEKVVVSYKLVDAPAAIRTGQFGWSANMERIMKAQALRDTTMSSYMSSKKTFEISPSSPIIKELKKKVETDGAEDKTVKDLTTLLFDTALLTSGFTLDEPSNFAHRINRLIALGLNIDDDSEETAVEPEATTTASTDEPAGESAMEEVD
fMet-Leu-Phe receptor, sequence (P21462 whole entry, the tested form may be a part): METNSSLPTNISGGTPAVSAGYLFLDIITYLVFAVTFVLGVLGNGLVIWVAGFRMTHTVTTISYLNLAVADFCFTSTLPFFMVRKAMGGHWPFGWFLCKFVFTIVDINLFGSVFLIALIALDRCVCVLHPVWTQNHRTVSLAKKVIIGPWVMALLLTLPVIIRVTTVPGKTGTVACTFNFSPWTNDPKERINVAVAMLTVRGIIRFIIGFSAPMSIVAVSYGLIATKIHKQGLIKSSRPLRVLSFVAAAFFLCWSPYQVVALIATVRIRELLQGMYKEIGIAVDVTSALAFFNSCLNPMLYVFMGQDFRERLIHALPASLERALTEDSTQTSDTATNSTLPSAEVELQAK
Nonstructural protein 1, sequence (Q194T2 whole entry): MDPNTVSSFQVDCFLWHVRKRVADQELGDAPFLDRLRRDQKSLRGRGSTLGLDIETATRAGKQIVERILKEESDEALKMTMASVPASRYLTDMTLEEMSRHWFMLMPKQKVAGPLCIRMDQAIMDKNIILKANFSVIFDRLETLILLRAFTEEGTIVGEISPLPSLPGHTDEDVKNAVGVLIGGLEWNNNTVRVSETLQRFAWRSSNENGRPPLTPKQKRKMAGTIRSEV
Histone-lysine N-methyltransferase NSD2, sequence (O96028 whole entry): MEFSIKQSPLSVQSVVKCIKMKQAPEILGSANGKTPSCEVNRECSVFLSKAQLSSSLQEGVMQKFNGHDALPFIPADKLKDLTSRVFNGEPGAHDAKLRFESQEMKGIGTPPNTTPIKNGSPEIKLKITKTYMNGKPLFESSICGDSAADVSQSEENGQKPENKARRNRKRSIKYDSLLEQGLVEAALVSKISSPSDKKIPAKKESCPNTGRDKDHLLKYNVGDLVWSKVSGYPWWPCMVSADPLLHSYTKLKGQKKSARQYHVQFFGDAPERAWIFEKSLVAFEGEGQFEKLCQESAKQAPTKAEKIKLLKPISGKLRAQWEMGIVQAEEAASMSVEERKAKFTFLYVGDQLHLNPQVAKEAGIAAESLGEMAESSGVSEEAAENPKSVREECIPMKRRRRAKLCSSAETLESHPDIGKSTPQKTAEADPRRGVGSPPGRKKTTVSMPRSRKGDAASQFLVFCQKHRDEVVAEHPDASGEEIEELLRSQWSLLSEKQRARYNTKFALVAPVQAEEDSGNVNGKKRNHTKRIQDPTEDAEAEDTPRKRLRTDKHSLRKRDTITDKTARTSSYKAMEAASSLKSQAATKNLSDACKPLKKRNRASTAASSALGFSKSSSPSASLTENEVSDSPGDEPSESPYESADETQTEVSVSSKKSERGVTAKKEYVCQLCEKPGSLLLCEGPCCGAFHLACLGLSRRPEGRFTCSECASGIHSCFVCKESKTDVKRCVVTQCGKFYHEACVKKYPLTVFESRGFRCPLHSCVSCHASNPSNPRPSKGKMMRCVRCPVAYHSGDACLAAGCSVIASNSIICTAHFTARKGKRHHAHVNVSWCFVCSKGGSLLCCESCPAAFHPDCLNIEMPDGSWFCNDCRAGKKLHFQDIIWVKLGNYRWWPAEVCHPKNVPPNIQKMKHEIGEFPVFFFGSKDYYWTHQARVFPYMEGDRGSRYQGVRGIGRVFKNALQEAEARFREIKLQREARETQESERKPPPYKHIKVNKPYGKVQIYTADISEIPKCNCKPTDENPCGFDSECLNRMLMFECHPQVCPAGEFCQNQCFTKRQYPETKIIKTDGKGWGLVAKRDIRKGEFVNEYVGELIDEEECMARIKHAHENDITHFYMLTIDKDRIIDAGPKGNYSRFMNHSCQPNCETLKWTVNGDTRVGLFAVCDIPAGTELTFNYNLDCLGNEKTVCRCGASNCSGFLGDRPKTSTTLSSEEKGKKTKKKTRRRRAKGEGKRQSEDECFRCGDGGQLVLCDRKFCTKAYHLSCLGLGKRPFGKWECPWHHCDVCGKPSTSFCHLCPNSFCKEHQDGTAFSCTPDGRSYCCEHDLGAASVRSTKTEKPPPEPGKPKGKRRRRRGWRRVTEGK
Photoreceptor-specific nuclear receptor, sequence (Q9Y5X4 whole entry, the tested form may be a part): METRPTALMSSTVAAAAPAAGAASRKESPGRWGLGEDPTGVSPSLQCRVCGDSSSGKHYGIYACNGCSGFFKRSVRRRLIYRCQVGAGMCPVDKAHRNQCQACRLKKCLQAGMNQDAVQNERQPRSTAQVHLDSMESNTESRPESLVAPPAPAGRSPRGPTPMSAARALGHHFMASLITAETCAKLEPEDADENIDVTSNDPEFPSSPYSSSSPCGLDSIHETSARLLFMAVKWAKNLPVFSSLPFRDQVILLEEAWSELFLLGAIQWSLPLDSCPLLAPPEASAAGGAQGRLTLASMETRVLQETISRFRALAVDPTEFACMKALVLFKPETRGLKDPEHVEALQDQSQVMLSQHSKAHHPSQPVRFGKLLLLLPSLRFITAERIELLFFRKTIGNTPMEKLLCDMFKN

Compound: CCCc1cc(=O)n2nc(N3CCC(C(=O)N4CCN(c5ccc(OC)cc5)CC4)CC3)sc2n1
- IC50 [1]: 4.09 µM (active)
- IC50 [2]: 7.18 µM (active)

Compound: Cc1nc(C)c(C(=O)C2=C(O)C(=O)N(CCCn3ccnc3)C2c2ccc(Cl)cc2)s1 (configuration not stated)
- Ki [3]: > 66.7 µM (inactive)

Compound: c1ccc(N=Nc2ccc(C3=NCCO3)cc2)cc1
- EC50 [4]: > 67.6 µM (inactive)

Compound: c1ccc2c(c1)CCN(c1[nH]cnc3c4ccccc4nc1-3)C2
- EC50 [5]: 5.96 µM (active)
- EC50 [6]: > 20 µM (not active)
- EC50 [7]: > 150 µM (inactive)
- EC50 [8]: 17.7 µM (active)
- EC50 [9]: > 150 µM (inactive)
- EC50 [10]: 1.01 µM (active)
- IC50 [11]: 21 µM (inactive)
- AC50 [12]: 4.09 µM (active)
- AC50 [13]: 2.62 µM (active)
- EC50 [14]: > 180 µM (inactive)
- AC50 [15]: 64.8 µM (active)
- IC50 [2]: 4.69 µM (active)

Compound: CCCNC(=O)C[C@@H]1CC[C@H]2[C@H](COc3ccc(NC(=O)c4ccc(C(F)(F)F)cc4)cc3C(=O)N2C)O1
- AC50 [16]: 31.5 µM (active)

Compound: Cc1ccc(NC(S)=NC(=NS(=O)(=O)c2ccccc2)c2ccccc2)cc1
- EC50 [4]: > 67.5 µM (inactive)
- EC50 [17]: 6.51 µM (active)
- EC50 [18]: 202 µM (active)
- EC50 [19]: 5.09 µM (active)
- EC50 [20]: > 350 µM (not active)
- EC50 [21]: 16.5 µM (active)

Compound: Cc1ccc(N2CCOCC2)c2c1C(=O)c1ccccc1C2=O
- IC50 [22]: 14.5 µM (active)
- IC50 [23]: > 122 µM (inactive)
- AC50 [24]: 10.5 µM (active)

Compound: CCn1cc(CN(C)S(=O)(=O)c2ccc3ccccc3c2)c(C)n1
- AC50 [25]: 1.8 µM (active)
- AC50 [26]: 1.56 µM (active)
- AC50 [27]: 2.23 µM (active)
- AC50 [28]: 22.8 µM (active)
- AC50 [29]: 39.4 µM (active)

Compound: COc1ccccc1C1C(C(=O)c2ccccc2)=C(O)C(=O)N1CC(C)C (configuration not stated)
- Ki [3]: 5.5 µM (active)

Compound: COc1ccc(Cl)cc1C(Nc1cccnc1)c1ccc2cccnc2c1O (configuration not stated)
- EC50 [7]: 33.6 µM (active)
- EC50 [30]: 6.56 µM (active)
- IC50 [23]: > 122 µM (inactive)
- AC50 [31]: 2.2 µM (active)
- EC50 [9]: 16.3 µM (active)
- EC50 [10]: 0.728 µM (active)
- EC50 [32]: 3.74 µM (active)
- EC50 [33]: 5.9 µM (active)
- EC50 [14]: > 180 µM (inactive)
- EC50 [34]: 1.86 µM (active)
